Source: patent US20210045385A1, “PYRIDAZINONE-SUBSTITUTED KETOXIMES AS HERBICIDES” (FMC Corporation, priority 2018, published 2021)

Tests used:
Type in all cases: in vivo
[1] = tested on: barnyardgrass (Echinochloa crus-galli); assay: Test C preemergence, visual plant response rating; conditions: Test C, 0 is no effect, 100 is complete control
How it was run: (§1)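 Seeds sown in a loam–sand blend got a directed preemergence soil spray; postemergence plants (2–10 cm, one- to two-leaf stage) were sprayed with compound in a non-phytotoxic solvent plus surfactant. Injury was scored visually against untreated controls after about 10 d in a greenhouse on a 0–100 scale (100 = complete control).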

[2] = tested on: pigweed (Amaranthus retroflexus); assay: Test C preemergence, visual plant response rating; conditions: Test C, 0 is no effect, 100 is complete control
How it was run: as §1

[3] = tested on: ragweed (common ragweed, Ambrosia artemisiifolia); assay: Test C preemergence, visual plant response rating; conditions: Test C, 0 is no effect, 100 is complete control
How it was run: as §1

[4] = tested on: Italian ryegrass (Lolium mutiflorum); assay: Test C preemergence, visual plant response rating; conditions: Test C, 0 is no effect, 100 is complete control
How it was run: as §1

[5] = tested on: foxtail, giant (giant foxtail, Setaria faberi); assay: Test C preemergence, visual plant response rating; conditions: Test C, 0 is no effect, 100 is complete control
How it was run: as §1

kochia (Bassia scoparia) [6] = assay: Test C preemergence, visual plant response rating; conditions: Test C, 0 is no effect, 100 is complete control
How it was run: as §1

[7] = tested on: barnyardgrass (Echinochloa crus-galli); assay: Test D flooded paddy test, visual plant response rating; conditions: 250 g ai/ha, scale 0 to 100 (0 no effect, 100 complete control), 13 to 15 d
How it was run: (§2)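 Plants grown to the 2-leaf stage; pots flooded to 3 cm above soil and compound applied directly into paddy water, depth held throughout. Kept in greenhouse 13 to 15 d, then rated visually against untreated controls on a 0–100 scale (0 no effect, 100 complete control).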

[8] = tested on: duck salad (Heteranthera limosa); assay: as above; conditions: 250 g ai/ha, scale 0 to 100 (0 no effect, 100 complete control), 13 to 15 d
How it was run: as §2

[9] = tested on: sedge umbrella (small-flower umbrella sedge, Cyperus difformis); assay: as above; conditions: 250 g ai/ha, scale 0 to 100 (0 no effect, 100 complete control), 13 to 15 d
How it was run: as §2

rice (Oryza sativa) = assay: as above; conditions: 250 g ai/ha, scale 0 to 100 (0 no effect, 100 complete control), 13 to 15 d
How it was run: as §2

[10] = tested on: wheat (Triticum aestivum); assay: Test C postemergence, visual plant response rating
How it was run: as §1

[11] = tested on: barnyardgrass (Echinochloa crus-galli); assay: Test C postemergence, visual plant response rating
How it was run: as §1

[12] = tested on: galium (catchweed bedstraw, Galium aparine); assay: Test C postemergence, visual plant response rating
How it was run: as §1

[13] = tested on: pigweed (Amaranthus retroflexus); assay: Test C postemergence, visual plant response rating
How it was run: as §1

[14] = tested on: ragweed (common ragweed, Ambrosia artemisiifolia); assay: Test C postemergence, visual plant response rating
How it was run: as §1

[15] = tested on: Italian ryegrass (Lolium mutiflorum); assay: Test C postemergence, visual plant response rating
How it was run: as §1

[16] = tested on: blackgrass (Alopecurus myosuroides); assay: Test C postemergence, visual plant response rating
How it was run: as §1

[17] = tested on: foxtail, giant (giant foxtail, Setaria faberi); assay: Test C postemergence, visual plant response rating
How it was run: as §1

corn (Zea mays) = assay: Test C postemergence, visual plant response rating
How it was run: as §1

kochia (Bassia scoparia) [18] = assay: Test C postemergence, visual plant response rating
How it was run: as §1

[19] = Test C, postemergence, 125 g ai/ha

| Compound | Barnyardgrass plant response rating (0 to 100 scale) ([1]; 31 g ai/ha) | Barnyardgrass plant response rating (0 to 100 scale) ([1]; 125 g ai/ha) | Pigweed plant response rating (0 to 100 scale) ([2]; 31 g ai/ha) | Pigweed plant response rating (0 to 100 scale) ([2]; 125 g ai/ha) | Ragweed plant response rating (0 to 100 scale) ([3]; 31 g ai/ha) | Ragweed plant response rating (0 to 100 scale) ([3]; 125 g ai/ha) | Ryegrass, Italian plant response rating (0 to 100 scale) ([4]; 31 g ai/ha) | Ryegrass, Italian plant response rating (0 to 100 scale) ([4]; 125 g ai/ha) | Foxtail, Giant plant response rating (0 to 100 scale) ([5]; 31 g ai/ha) | Foxtail, Giant plant response rating (0 to 100 scale) ([5]; 125 g ai/ha) | Kochia plant response rating (0 to 100 scale) (kochia (Bassia scoparia) [6]; 31 g ai/ha) | Kochia plant response rating (0 to 100 scale) (kochia (Bassia scoparia) [6]; 125 g ai/ha) | Plant response rating, Barnyardgrass (Flood) [7] | Plant response rating, Ducksalad (Flood) [8] | Plant response rating, Sedge, Umbrella (Flood) [9] | Plant response rating, Rice (Flood) (rice (Oryza sativa)) | Wheat plant response rating (0 to 100 scale) ([10]; Postemergence, 31 g ai/ha) | Wheat plant response rating (0 to 100 scale) [10, 19] | Barnyardgrass plant response rating (0 to 100 scale) ([11]; Postemergence, 31 g ai/ha) | Barnyardgrass plant response rating (0 to 100 scale) [11, 19] | also measured |
| --- | --- | --- | --- | --- | --- | --- | --- | --- | --- | --- | --- | --- | --- | --- | --- | --- | --- | --- | --- | --- | --- |
| Cc1nn(C)c(=O)c(C(=NOCC2CC2)c2cc(Cl)cc(Cl)c2Cl)c1O [Compound 293] | 0 | 0 | 0 | 70 | 40 | 100 | 30 | 100 | 90 | 100 | 0 | 0 | 0 | 0 | 0 | 0 | 40 | 70 | 20 | 50 | Galium plant response rating (0 to 100 scale) ([12]; Postemergence, 31 g ai/ha): 100; Galium plant response rating (0 to 100 scale) [12, 19]: 100; Pigweed plant response rating (0 to 100 scale) ([13]; Postemergence, 31 g ai/ha): 20; Pigweed plant response rating (0 to 100 scale) [13, 19]: 40; Ragweed plant response rating (0 to 100 scale) ([14]; Postemergence, 31 g ai/ha): 100; Ragweed plant response rating (0 to 100 scale) [14, 19]: 100; Ryegrass, Italian plant response rating (0 to 100 scale) ([15]; Postemergence, 31 g ai/ha): 100; Ryegrass, Italian plant response rating (0 to 100 scale) [15, 19]: 100; Blackgrass plant response rating (0 to 100 scale) ([16]; Postemergence, 31 g ai/ha): 0; Blackgrass plant response rating (0 to 100 scale) [16, 19]: 0; Foxtail, Giant plant response rating (0 to 100 scale) ([17]; Postemergence, 31 g ai/ha): 40; Foxtail, Giant plant response rating (0 to 100 scale) [17, 19]: 80; Corn plant response rating (0 to 100 scale) (corn (Zea mays); Postemergence, 31 g ai/ha): 0; Corn plant response rating (0 to 100 scale) (corn (Zea mays); [19]): 10; Kochia plant response rating (0 to 100 scale) (kochia (Bassia scoparia) [18]; Postemergence, 31 g ai/ha): 0; Kochia plant response rating (0 to 100 scale) (kochia (Bassia scoparia) [18]; [19]): 30 |
| C=CCON=C(c1cc(Cl)cc(Cl)c1Cl)c1c(O)c(C)nn(C)c1=O [Compound 294] | 70 | 100 | 20 | 80 | 70 | 100 | 60 | 100 | 70 | 100 | 0 | 50 | 0 | 0 | 0 | 0 | 0 | 60 | 20 | 60 | Galium plant response rating (0 to 100 scale) ([12]; Postemergence, 31 g ai/ha): 80; Galium plant response rating (0 to 100 scale) [12, 19]: 100; Pigweed plant response rating (0 to 100 scale) ([13]; Postemergence, 31 g ai/ha): 20; Pigweed plant response rating (0 to 100 scale) [13, 19]: 20; Ragweed plant response rating (0 to 100 scale) ([14]; Postemergence, 31 g ai/ha): 80; Ragweed plant response rating (0 to 100 scale) [14, 19]: 100; Ryegrass, Italian plant response rating (0 to 100 scale) ([15]; Postemergence, 31 g ai/ha): 50; Ryegrass, Italian plant response rating (0 to 100 scale) [15, 19]: 100; Blackgrass plant response rating (0 to 100 scale) ([16]; Postemergence, 31 g ai/ha): 0; Blackgrass plant response rating (0 to 100 scale) [16, 19]: 0; Foxtail, Giant plant response rating (0 to 100 scale) ([17]; Postemergence, 31 g ai/ha): 40; Foxtail, Giant plant response rating (0 to 100 scale) [17, 19]: 60; Corn plant response rating (0 to 100 scale) (corn (Zea mays); Postemergence, 31 g ai/ha): 0; Corn plant response rating (0 to 100 scale) (corn (Zea mays); [19]): 10; Kochia plant response rating (0 to 100 scale) (kochia (Bassia scoparia) [18]; Postemergence, 31 g ai/ha): 20; Kochia plant response rating (0 to 100 scale) (kochia (Bassia scoparia) [18]; [19]): 30 |
